Like-named read-outs stand apart in the source and are kept apart here.
How the values were obtained:
[1] = system: Cancer Stem Cells MiaPaca_2; assay: MTT assay, synergism with Gemcitabine, Cancer Stem Cells MiaPaca_2; assay type: cell-based; settings: Homo sapiens, MIA PaCa-2; Cancer Stem Cells MiaPaca_2, Gemcitabine alone; read-out: IC50, dose-response curve of Gemcitabine
Method: In order to study if treatment with MDN-0090 could be used in synergism with the most common pancreatic chemotherapic drug (Gemcitabine), MTT assay was performed using tumor cell lines (MiaPaca_2 and BxPC3) and cancer stem cells (MiaPaca_2 and BxPC3). In this way different Gemcitabine concentrations (0.00025-5 μM) were used with MDN-0090 dose response curves (0.39-50 μM) and vice versa. With this assay, we observed that the activity of both compounds (Gemcitabine and MDN-0090) increased when were administered together. (Tables 14-19)

[2] = system: MiaPaca_2 cell line; assay: CFSE assay (cell cycle inhibition, High content screening); assay type: cell-based; settings: Homo sapiens, MIA PaCa-2; MiaPaca_2, 72 hours of treatment; read-out: ED50 CFSE assay
Method: To evaluate the potency of the MDN-0089, MDN-0090, MDN-0092 and MDN-0093, dye CFSE and High content screening (HCS) equipment were used. MiaPaca_2 cell line was used. Cells were seeded in 96 wells plates at 10.000 cells/well. Medium was removed and compounds and standards were added in fresh medium at different concentrations, (1 μL of compound/200 μL fresh medium). The DMSO concentration was 0.5% in all wells. After 72 hours of incubation (37° C., 5% CO2), plates were read in HCS equipment.

[3] = system: MiaPaca 2 cell line; assay: ApoTox-Glo Triplex Assay (viability, citotoxicity, apoptosis); assay type: cell-based; settings: Homo sapiens, MIA PaCa-2, MiaPaca_2, 72 hours of treatment
Method: The MiaPaca 2 cell line was used for further evaluation of the MDN-0089, MDN-0090, MDN-0092 and MDN-0093 activity. The ApoTox-Glo™ Triplex Assay was used to evaluate three parameters (viability, citotoxicity and apoptosis).
Viability: The live-cell protease activity is restricted to intact viable cells and is measured using a fluorogenic, cell-permeant, peptide substrate (glycylphenylalanyl-aminofluorocoumarin; GF-AFC). The substrate enters intact cells where it is cleaved by the live-cell protease activity to generate a fluorescent signal proportional to the number of living cells
Cytotoxicity: Fluorogenic cell-impermeant peptide substrate (bis-alanylalanyl-phenylalanyl-rhodamine 110; bis-AAF-R110) is used to measure dead-cell protease activity, which is released from cells that have lost membrane integrity. Because bis-AAF-R110 is not cell-permeant, essentially no signal from this substrate is generated by intact, viable cells
Apoptosis: The assay uses the Caspase-Glo® Assay Technology by providing a luminogenic caspase-3/7 substrate, which contains the tetrapeptide sequence DEVD, in a reagent optimized for caspase activity, luciferase activity and cell lysis.

[4] = system: MiaPaca_2; assay: MTT assay in MiaPaca_2 tumoral pancreatic cell line; assay type: cell-based; settings: Homo sapiens, MIA PaCa-2; 72 hours of treatment; read-out: ED50 MiaPaca_2 (MTT assay)
Method: (§1) The activity of the compounds was detected using tumoral pancreatic cell lines (MiaPaca-2 and BxPC3). For this purpose MTT test was used. Cells were seeded at […], and treated with the compound during 72 hours.

[5] = system: HepG2; assay: Cytotoxicity on HepG2; assay type: cell-based; settings: for activity effect on HepG2 (in words): 72 hours; for IC50: Homo sapiens, HepG2, 72 hours, read-out: IC50 Cytoxicity
[6] = system: pERK1/2; assay: Western blot pERK1_2 (Ras/Raf/MEK/ERK pathway inhibition); assay type: cell-based; settings: 24 hours of treatment, untreated 0.38
Excerpt: Western blot technique was used, using an Odissey Licor equipment to read the membranes. pERK1_2 antibody was used as first antibody and as second antibody we used anti-mouse antibodies. Then, the membranes were quantified using β-actin.

[7] = system: BxPC3; assay: MTT assay in BxPC3 tumoral pancreatic cell line; assay type: cell-based; settings: Homo sapiens, BXPC-3; 72 hours of treatment; read-out: ED50 BxPC3 (MTT assay)
Method: as §1

[8] = system: CSCs MiaPaca_2; assay: MTT test on pancreatic Cancer Stem Cells MiaPaca_2; assay type: cell-based; settings: Homo sapiens, MIA PaCa-2, read-out: ED50 CSCs MiaPaca_2
Excerpt: (§2) Two established cell lines derived from two different pancreatic adenocarcinomas: BxPC3 (reference ATCC® CRL-1687), mutated for CDKN2A, MAP2K4, SMAD4 and TP53; and MIA-PaCa-2 (reference ATCC® CRL-1420), mutated for k-RAS were used. These cells lines were maintained with Dulbecco's-Modified Eagle's Medium (DMEM) (Sigma-Aldrich, St. Louis, Mo., USA) supplemented with 10% fetal bovine serum (FBS) (Gibco, Carlsbad, Calif., USA) and 1% penicillin/streptomycin (P/S) (Sigma-Aldrich) in a 75 cm^2 culture flask (B D Falcon, Franklin Lakes, N.J.) unless otherwise indicated. All cells were grown at 37° C. with 5% CO2 in a humidified incubator (Steri-Cult CO2 Incubator, Thermo Electron Corporation, Waltham, Mass., USA). Media were changed every 48-72 hours and cultured cells with a maximum of 80% confluence were passed.
(§3) For the isolation of CSCs subpopulation we used the methodology described in WO 2016/020572.
(§4) The activity of the MDN-0090 was detected using pancreatic Cancer Stem Cell lines (MiaPaca-2 and BxPC3). For this purpose MTT test was used.

[9] = system: BxPC3 CSCs xenografts; assay: Antitumor activity against CSCs induced tumors; assay type: in vivo; settings: BxPC3 CSCs xenograft, NSG mice, 10 mg/kg or 20 mg/kg ip three times a week for 52 days
Method: We evaluated the effect of MDN-0090 on CSCs induced tumors. We isolated and characterized the pancreatic CSCs from BxPC3 cell line using the methodology described previously (WO 2016/020572).
In vivo experiment was performed in male and female NOD scid gamma mice (NSG, NOD.Cg-Prkdcscid II2rgtm1Wjl/SzJ). All animals (n=10 per group) were maintained in a microventilated cage system with a 12-h light/dark cycle, and were manipulated in a laminar air-flow cabinet to keep on the specific pathogen-free conditions.
For the induction of xenografts tumors, mice were anesthetized by inhalation of isofluorane, inoculated with 5×10^4 BxPC3 CSCs by subcutaneously injections into the flank regions. Tumors were grown to an average volume of 100 mm^3, after which they were randomly assigned as control groups (saline) and treatment A with MDN-0090 (10 mg/kg, dissolved in saline) and treatment B (20 mg/kg, dissolved in saline) ip three times a week for 52 days. Tumor growth was assessed twice weekly using a digital caliper and the tumor volume was calculated by the formula V=(length)^2×width×π/6.

[10] = system: BxPC3 tumor cell line; assay: In vivo tumorigenicity assay, BxPC3; settings: BxPC3 cells treated with MDN-0090 at IC50 for 24 hours before inoculation into NSG mice
Method: (§5) To evaluate the effect of MDN-0090 on the tumorigenicity ability of CSC-like cells heterotopic xenografts using both BxPC3 and MIAPaca-2 tumor cell lines were established. Firstly, we treated cells with MDN-0090 at IC50 for 24 hours and after that cells were inoculated into the animals. Pancreatic cancer non-treated cells were used as control.
(§6) Tumor formation was induced by subcutaneous injection of 1.5×10^4 in vitro treated or non-treated cells/mouse in NOD scid mice gamma (NOD.Cg-Prkdcscid II2rgtm1Wjl/SzJ, NSG). Animals (n=20, 10 per group) were housed and maintained at 20° C. to 24° C., 50% humidity a light-dark cycle of 14 to 10 h with food and water ad libitum. We observed the tumor growth every two days. Tumor growth was assessed using a digital caliper and the tumor volume was calculated by the formula V=(length)^2×width×π/6.

[11] = system: BxPC3 tumor cell line xenografts; assay: Antitumor activity in heterotopic xenografts, BxPC3; assay type: in vivo; settings: BxPC3 xenograft, NSG mice, 20 mg/kg ip three times a week for 50 days
Method: (§7) To evaluate the effect of MDN-0090 on tumor growth heterotopic xenografts were used for both BxPC3 and MIAPaca-2 tumor cell lines. Tumor formation was induced by subcutaneous injection of 5×10^6 cells/mouse in female NOD scid mice gamma (NOD.Cg-Prkdcscid II2rgtm1Wjl/SzJ, NSG) of eight weeks old. Animals (n=40, 10 per group) were housed and maintained at 20° C. to 24° C., 50% humidity a light-dark cycle of 14 to 10 h with food and water ad libitum. Tumors were grown to an average volume of 100 mm^3, after which they were randomly assigned as control groups (saline) and treated with MDN-0090 (20 mg/kg, dissolved in saline) injected ip three times a week for 50 days. Tumor growth was assessed twice weekly using a digital caliper and the tumor volume was calculated by the formula V=(length)^2×width×π/6.

[12] = system: MIAPaca-2 tumor cell line; assay: In vivo tumorigenicity assay, MIAPaca-2; settings: MIAPaca-2 cells treated with MDN-0090 at IC50 for 24 hours before inoculation into NSG mice
Method: as §5, §6

[13] = system: p-ERK; assay: AlphaScreen Surefire p-ERK kit assay; assay type: cell-based; settings: 24 hours of treatment, read-out: Inflexion point (AlphaScreen)
Method: This effect was checked for MDN-0090 with a p-ERK kit (Perkin Elmer). Cells were seeded into 96 wells/plate at 75000 cells/well. 24 hours later the medium was removed and the compound was added with fresh medium. After 24 hours of treatment, cells were lysed. 15 μL of the lysate and 15 μL of reagents were added. After 2 hours of incubation, plate was read using an EnVision equipment to read AlphaScreen assay (AlphaScreen signal (Luminiscent/fluorescent). See table 11 and FIG. 2.

[14] = system: MIAPaca-2 tumor cell line xenografts; assay: Antitumor activity in heterotopic xenografts, MIAPaca-2; assay type: in vivo; settings: MIAPaca-2 xenograft, NSG mice, 20 mg/kg ip three times a week for 50 days
Method: as §7

[15] = system: CSCs BxPC3; assay: MTT test on pancreatic Cancer Stem Cells BxPC3; assay type: cell-based; settings: Homo sapiens, BXPC-3, read-out: ED50 CSCs BxPC3
Excerpt: as §2, §3, §4

[16] = read-out: ED50 Apoptosis (Caspase3_7)

Structure (SMILES)	EC50 [2] [µM]	EC50 [3, 16] [µM]	EC50 ([3]; read-out: ED50 Citotoxicity) [µM]	EC50 ([3]; read-out: ED50 Viability) [µM]	EC50 [4] [µM]	activity effect on HepG2 (in words) [5]	IC50 [5] [µM]	pERK1_2 (Fluorescence pERK1/2/fluorescence β-actine) [6]	EC50 [7] [µM]	further results
Nc1ccn([C@@H]2O[C@H](CO)[C@@H](O)C2(F)F)c(=O)n1 [Gemcitabine]										IC50 [1]: 1.9 µM
Cc1cc(O)c(C(=O)c2c(C=O)c(O)cc3c2C(=O)CC(C)(C)O3)c(O)c1 [MDN-0089]	3.33	29.7	> 50	> 50	20.3	medium activity effect	13.6	0.22	7.63	
CC(C)=CCc1c(O)cc(O)c(C=O)c1C(=O)c1c(O)cc(C)cc1O [MDN-0090, 2,3′,5′,6-tetrahydroxy-2′-formyl-6′-(3-methyl-2-butenyl)-4-methyl-benzophenone]	5.27	24.9	> 50	17.3	8.84	medium activity effect	19.7	0.18	4.67	EC50 ([8]; 12 hours): 20.8 µM; EC50 ([8]; 24 hours): 14 µM; EC50 ([8]; 48 hours): 19.6 µM; EC50 ([8]; 72 hours): 2.18 µM; tumor size (tumor volume) [9]: decreased the size tumor; tumor formation [10]: reduces tumor formation; tumor size (tumor volume) [11]: reduces the size of tumors; tumor formation [12]: reduces tumor formation; IC50 ([13]; 24 h): 9.02 µM; IC50 [13]: 6.12 µM; tumor size (tumor volume) [14]: reduces the size of tumors; EC50 ([15]; 12 hours): 14.3 µM; EC50 ([15]; 24 hours): 17 µM; EC50 ([15]; 48 hours): 14 µM; EC50 ([15]; 72 hours): 10.3 µM
Cc1cc(O)c(C(=O)c2c(C=O)c(O)cc3c2C=CC(C)(C)O3)c(O)c1 [MDN-0091]					> 50				> 50	
COc1cc(O)c(C=O)c(C(=O)c2c(O)cc(C)cc2O)c1CC=C(C)C [MDN-0092]	22.9	> 50	> 50	> 50	7.18	medium activity effect	20.4	0.29	9.14	
COc1cc(O)c(C=O)c(C(=O)c2c(O)cc(C)c(Cl)c2O)c1CC=C(C)C [MDN-0093]	< 3.15	18.4	> 50	14.5	6.47	high activity effect	8.9	0.12	8.7	
COc1cc(O)c2oc3cc(C)cc(O)c3c(=O)c2c1CC=C(C)C [MDN-0094]					> 50				> 50	
